Data published in ChEMBL document CHEMBL4020793 (Bioorg Med Chem Lett, 2017).
pIC50: −log10 of the molar value.

Key:
Format in all cases: functional, cell-based
L1210 = assay: Antiproliferative activity against mouse L1210 cells assessed as cell viability after 72 hrs by MTS assay; conditions: L1210, 72 h
HCT-116 = assay: Antiproliferative activity against human HCT116 cells assessed as cell viability after 72 hrs by MTS assay; conditions: HCT-116, 72 h
HCT-116/VM46 = assay: Antiproliferative activity against vinblastine-resistant human HCT116/VM46 cells assessed as cell viability after 72 hrs by MTS assay; conditions: HCT-116/VM46, 72 h

Row | SMILES | pIC50 (L1210) | pIC50 (HCT-116) | pIC50 (HCT-116/VM46)
1 | CCC[C@]1(O)C[C@H]2CN(CCc3c([nH]c4ccccc34)[C@@](C(=O)OC)(c3cc4c(cc3OC)N(C)[C@H]3[C@@](O)(C(=O)OC)[C@H](OC(C)=O)[C@]5(CC)C=CCN6CC[C@]43[C@@H]65)C2)C1 | 6.52 | 6.38 | < 6.00
2 | CC[C@]12C=CCN3CC[C@@]4(c5cc([C@@]6(C(=O)OC)C[C@@H]7CN(CCc8c6[nH]c6ccccc86)C[C@](O)(CCN=[N+]=[N-])C7)c(OC)cc5N(C)[C@H]4[C@@](O)(C(=O)OC)[C@@H]1OC(C)=O)[C@@H]32 | 7.19 | 7.15 | 5.52
3 | CC[C@]12C=CCN3CC[C@@]4(c5cc([C@@]6(C(=O)OC)C[C@@H]7CN(CCc8c6[nH]c6ccccc86)C[C@](O)(CCF)C7)c(OC)cc5N(C)[C@H]4[C@@](O)(C(=O)OC)[C@@H]1OC(C)=O)[C@@H]32 | 8.12 | 8.20 | 6.38
4 | CC[C@]12C=CCN3CC[C@@]4(c5cc([C@@]6(C(=O)OC)C[C@@H]7CN(CCc8c6[nH]c6ccccc86)C[C@@]6(O)CCCC[C@H]76)c(OC)cc5N(C)[C@H]4[C@@](O)(C(=O)OC)[C@@H]1OC(C)=O)[C@@H]32 | 8.22 | 8.22 | 6.70
5 | CC[C@]12C=CCN3CC[C@@]4(c5cc([C@@]6(C(=O)OC)C[C@@H]7CN(CCc8c6[nH]c6ccccc86)C[C@@]6(O)CCCC[C@@H]76)c(OC)cc5N(C)[C@H]4[C@@](O)(C(=O)OC)[C@@H]1OC(C)=O)[C@@H]32 | 9.22 | 9.15 | 7.22
6 | CCCC[C@]1(O)C[C@H]2CN(CCc3c([nH]c4ccccc34)[C@@](C(=O)OC)(c3cc4c(cc3OC)N(C)[C@H]3[C@@](O)(C(=O)OC)[C@H](OC(C)=O)[C@]5(CC)C=CCN6CC[C@]43[C@@H]65)C2)C1 | 6.32 | 6.10 | < 6.00
7 | CC[C@]12C=CCN3CC[C@@]4(c5cc([C@@]6(C(=O)OC)C[C@@H]7CN(CCc8c6[nH]c6ccccc86)C[C@](O)(CCC#N)C7)c(OC)cc5N(C)[C@H]4[C@@](O)(C(=O)OC)[C@@H]1OC(C)=O)[C@@H]32 | 7.10 | 7.10 | 5.10
8 | CC[C@]12C=CCN3CC[C@@]4(c5cc([C@@]6(C(=O)OC)C[C@@H]7CN(CCc8c6[nH]c6ccccc86)C[C@](O)(CCO)C7)c(OC)cc5N(C)[C@H]4[C@@](O)(C(=O)OC)[C@@H]1OC(C)=O)[C@@H]32 | < 6.00 | < 6.00 | < 6.00
